The results in this text go back to patent US10668108B2, “Compositions and methods of treating liver disease” (Children's Hospital Medical Center, priority 2016, dated 2020).

Entries after “also recorded” stand apart in the source; their conditions may differ.

The subject of assay [1] is HLO. Put plainly: ROS live-cell imaging with CellROX dye in HLO. Format: cell-based, human. The following applies: for ROS production: 400 μM Intralipid treated HLO, live-cell imaging, CellROX. From the text:
Because there are no established ameliorative strategies, and PNALD is the leading indication for liver transplantation in infants (El Kasmi et al., 2013), we further investigated preventive and therapeutic effects of FXR agonist obeticholic acid (OCA) and FGF19 hormone that are activated by OCA, which have shown great potential in nonalcoholic steatohepatitis treatment (Dash et al., 2017; Kumar and Teckman, 2015; Neuschwander-Tetri et al., 2015). To implicate the therapeutic significance of OCA and FGF19 for PNALD like pathology in HLO, OCA and FGF19 were added to 400 μM Intralipid exposed HLO. […] Mechanistically, the accumulation of reactive oxygen species (ROS) is strongly associated with the fatty liver related hepatocyte death (Nandivada et al., 2013; Tsedensodnom and Sadler, 2013). We thus wondered whether OCA and FGF19 would inhibit the production of ROS so we sought to confirm that theory with live-cell imaging with CellROX dye.
Phagocyte, lipids, ROS live-cell imaging. After being cultured in an ultra-low attachment 6 multi-well plate, 5-10 HLO were picked up and seeded in a Microslide 8 Well Glass Bottom plate (Ibidi, WI, USA) and subjected to live-cell staining. The following antibodies were used: pHrodo® Red S. aureus Bioparticles® Conjugate for Phagocyte activity (Thermo Fisher Scientific Inc.), BODIPY® 493/503 for lipids (Thermo Fisher Scientific Inc.), Di-8-ANEPPS for membrane (Thermo Fisher Scientific Inc.), and CellROX green reagent for ROS detection (Thermo Fisher Scientific Inc.). Nuclear staining was marked by NucBlue Live ReadyProbes Reagent (Thermo Fisher Scientific Inc.). […] The final lipid droplet volume was calculated by IMARIS8 and normalized by each organoid size. Significance testing for lipid droplet volume and ROS production (%) was conducted by Student's t-test.

Assay [2] has as its system HLO. Put plainly: HLO stiffness measurement by AFM. In kind it is cell-based, human. As to the method: To further determine whether OCA and FGF19 have an impact on fibrosis, HLO stiffness was assessed. Organoid damage induced by Intralipid is extremely significant and treated HLOs for 5 days are not able to be stabilized on a dish, which is a minimal requirement for assessing the rigidity by AFM. To circumvent this limitation, the stiffness was assessed at Day3.
LPS and FFA exposure and OCA and FGF19 treatment. 20-30 hLOHLO, which had been isolated from Matrigel and washed by 1×PBS, were divided into each condition and cultured on an ultra-low attachment 6 multi-well plates (Corning). […]
HLO stiffness measurement by AFM. […] The AFM head with a silicon nitride cantilever (CSC37, k=0.3 N/m, MikroMasch, Bulgaria) was mounted on a fluorescence stereo microscope (M205 FA, Leica, Germany) coupled with a Z-axis piezo stage (JPK CellHesion module, JPK Instruments, Germany), which allows the indentation measurement up to the depth of ˜100 μm. […] The sample dish was then placed onto the AFM stage, and force-distance curves in a 14×14 matrix in a 25×25 μm square were measured from each HLO. Finally, Young's moduli (E, Pa) of HLOs were determined by fitting the obtained force-distance curves with the modified Hertz model (Sneddon, 1965). […]

The test system of assay [3] is HLO. The assay is described as follows: HLO survival, 800 μM OA treated HLO (3D cell titer glo). Format: cell-based, human. To be noted: 800 μM OA + FGF19 40 ng/ml, same time point. Here is the method:
LPS and FFA exposure and OCA and FGF19 treatment. 20-30 hLOHLO, which had been isolated from Matrigel and washed by 1×PBS, were divided into each condition and cultured on an ultra-low attachment 6 multi-well plates (Corning). HLO were cultured with LPS (Sigma), OA (Sigma), LA (Sigma), SA (Sigma), or PA (Sigma) and collected at day 1 and 3 (for LPS HLO) and at day 3 and 5 (for OA) after the culture. To test the inhibitory effect of OCA (INT-747, MedChem Express, NJ, USA) and human FGF19 recombinant (Sigma) on HLO, 20-30 HLO were cultured in HCM media in the presence or absence of oleic acid (800 μM), and 1 μM OCA and 40 ng/ml FGF19 were added into 800 μM OA condition. HLO were collected at day 3 for lipids live-cell imaging and at day 5 for stiffness measurement.
HLO survival assay. HLO were collected from Matrigel and washed by 1×PBS. 30-40 organoids were cultured on an ultra-low attachment 6 multi-well plate (Corning). HLO were captured on The KEYENCE BZ-X710 Fluorescence Microscope every day. The surviving and dead organoids were counted manually from the photo. HLO with a rounded configuration was counted as the surviving while the organoids with out of shape is counted as dead. To assess the survival rate of OA treated HLO at the same time point, 3D cell titer glo assay was used (Promega, Wi, USA).

Assay [4] has as its system HLO. Put plainly: HLO survival assay, Intralipid exposed HLO (PNALD model). Format: cell-based. The following applies: added to 400 μM Intralipid exposed HLO (PNALD-HLO); FGF19 40 ng/ml. The source says:
PNALD is an iatrogenic fatty liver disease which occurs frequently in infants provided with parental nutrition (PN) solutions employing a lipid emulsion (Intralipid) that provide life-sustaining calories in the setting of inadequate absorption of enteral nutrients (Kumar and Teckman, 2015; Orso et al., 2016). PNALD has a histological evidence of steatosis, cell death (apoptosis), and fibrosis (Nandivada et al., 2013). To recapitulate PNALD pathology in HLO, we reconstituted components of Intralipid and placed it directly into HLO culture.
[…]; Kumar and Teckman, 2015; Neuschwander-Tetri et al., 2015). To implicate the therapeutic significance of OCA and FGF19 for PNALD like pathology in HLO, OCA and FGF19 were added to 400 μM Intralipid exposed HLO. […] Mechanistically, the accumulation of reactive oxygen species (ROS) is strongly associated with the fatty liver related hepatocyte death (Nandivada et al., 2013; Tsedensodnom and Sadler, 2013). We thus wondered whether OCA and FGF19 would inhibit the production of ROS so we sought to confirm that theory with live-cell imaging with CellROX dye. […]. […]
HLO survival assay. […] HLO were captured on The KEYENCE BZ-X710 Fluorescence Microscope every day. The surviving and dead organoids were counted manually from the photo. HLO with a rounded configuration was counted as the surviving while the organoids with out of shape is counted as dead. […]

In turn, “FGF19: human FGF19 recombinant (Sigma); hormone activated by OCA” yielded an ROS production in the assay with HLO [1] of 30%. Also, in the assay on HLO [1] (400 μM Intralipid, FGF19 40 ng/ml), the “effect on ROS production caused by 400 μM Int” value was “inhibit the ROS production”. Further, in the assay with HLO [2] (800 μM OA + FGF19 40 ng/ml), the “stiffness of OA treated HLO (AFM)” value is given as “significantly softened; also recorded: decreased”. Further, in the assay with HLO [2] (Intralipid treated HLO, stiffness assessed at Day3), the “progression of fibrosis (HLO stiffness)” value was “reduce the progression of fibrosis”. Moreover, the “survival of 800 μM OA HLO” value in the assay on HLO [3] is “significantly improved”. Besides, the “number of surviving organoids” value in the assay on HLO [4] was roughly 78%.
In the assay on HLO [1], `CC[C@H]1[C@@H](O)[C@@H]2[C@H](CC[C@]3(C)[C@@H]([C@H](C)CCC(=O)O)CC[C@@H]23)[C@@]2(C)CC[C@@H](O)C[C@@H]12` [OCA, obeticholic acid, reference compound] registered an ROS production of 20%. For the same compound, the “number of surviving organoids” value in the assay on HLO [4] was “around 83%”.
